Measured values taken from paper PMC9658561, “[^99mTc]Tc-PSMA-T4—Novel SPECT Tracer for Metastatic PCa: From Bench to Clinic” (Molecules, 2022).
Read-outs that look alike come from different tables or passages of the source.

What was measured:
PSMA [1] = molecular target: T1, PSMA (Homo sapiens, UniProt Q04609); assay: Competitive binding on LNCaP cell membranes with [131I]I-MIP1095 as competitive radioligand; details: [131I]I-MIP1095 radioligand, 2 h at 37 °C
T1 construct: host or cells: LNCaP cell membranes
T1 sequence (Q04609 whole entry): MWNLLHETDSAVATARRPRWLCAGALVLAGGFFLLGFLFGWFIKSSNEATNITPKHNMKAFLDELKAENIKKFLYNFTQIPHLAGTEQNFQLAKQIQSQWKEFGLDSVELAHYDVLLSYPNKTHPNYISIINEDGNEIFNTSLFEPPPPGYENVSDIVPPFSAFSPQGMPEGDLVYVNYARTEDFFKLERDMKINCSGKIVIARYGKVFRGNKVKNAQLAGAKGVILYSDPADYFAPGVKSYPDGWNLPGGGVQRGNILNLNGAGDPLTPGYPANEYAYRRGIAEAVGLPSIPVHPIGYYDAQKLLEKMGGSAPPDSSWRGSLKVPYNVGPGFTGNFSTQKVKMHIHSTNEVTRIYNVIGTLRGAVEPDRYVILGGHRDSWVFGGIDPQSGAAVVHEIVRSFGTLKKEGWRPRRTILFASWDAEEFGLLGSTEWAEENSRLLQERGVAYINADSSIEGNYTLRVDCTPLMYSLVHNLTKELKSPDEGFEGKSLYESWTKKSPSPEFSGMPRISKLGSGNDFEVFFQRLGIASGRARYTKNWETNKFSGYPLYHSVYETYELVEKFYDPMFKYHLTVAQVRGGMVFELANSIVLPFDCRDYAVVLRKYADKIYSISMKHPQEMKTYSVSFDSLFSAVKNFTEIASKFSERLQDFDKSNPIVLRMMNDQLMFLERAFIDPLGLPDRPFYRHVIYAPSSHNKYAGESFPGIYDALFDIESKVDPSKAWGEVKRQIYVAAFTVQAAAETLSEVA
Procedure: Cells from prostate cancer carcinomas: LNCaP and PC3, were isolated like previously described. The cells were harvested using 1 mL/flask of Trypsin-EDTA solution and centrifuged (1500 rpm for 15 min (LNCaP) and 1300 rpm for 6 min (PC3)). Received cell sediment was resuspended in 9.7 mM NaHCO3 containing 0.3 mM NaH2PO4 and incubated for 30 min at 4 °C. The solution was dispensed on 1.5 mL Eppendorf and centrifuged (13,500 rpm for 30 min). The supernatant was removed, the pellet was resuspended in 50 mM Tris-HCl Buffer (pH 7.4) and homogenized using a syringe with a thin needle. The solution was centrifuged (13,500 rpm for 30 min), and the final pellet was suspended in 50 mM Tris-HCl buffer (pH 7.4) and transferred to −70 °C.
The LNCaP cell membranes were distributed (in four replicates) in the constant amount on special MultiScreen™ 96 well assay plates. 100 µL of un-supplemented RPMI 1640 medium and 50 µL of increasing concentration of the unlabeled PSMA inhibitors was added to each well. As a control, 50 µL of PBS in 100 µL of media was used. After 15 min incubation at 37 °C, 50 µL of [^131I]I-MIP-1095 was added. Plates were incubated for 2 h at 37 °C. After an appropriate time, the supernatant solution was filtered under vacuum, and the membranes were washed twice with PBS solution. Filters and membranes were extruded to the tubes using MultiScreen Multiple Punch. The radioactivity of the filters was measured using a Wallac Wizard 1470 γ counter. The IC50 was evaluated and determined using GraphPad Prism 9.4 statistic program. As a control, PSMA-11 was used.

PSMA [2] = molecular target: PSMA; parameters: method as in PMID 24983957; details: cited from earlier work
PSMA [3] = tested on: PSMA; parameters: method as in PMID 28450562; details: affinity for PSMA ref 53; cited from earlier work

Compound	IC50 (PSMA [1]) [nM]	other results
O=C(O)CCc1ccc(O)c(CN(CCN(CC(=O)O)Cc2cc(CCC(=O)NCCCCCC(=O)NCCCC[C@H](NC(=O)N[C@@H](CCC(=O)O)C(=O)O)C(=O)O)ccc2O)CC(=O)O)c1 [PSMA-11]	715	Kd (PSMA [2]): 11.4 nM
NNc1ccc(C(=O)NCCCCCC(=O)N[C@@H](Cc2c[nH]c3ccccc23)C(=O)NCCCC[C@H](NC(=O)N[C@@H](CCC(=O)O)C(=O)O)C(=O)O)cn1 [PSMA-T3, Glu-CO-Lys-LTrp-6Ahx-HYNIC]	74.6	
NNc1ccc(C(=O)NC[C@H]2CC[C@H](C(=O)N[C@@H](Cc3c[nH]c4ccccc34)C(=O)NCCCC[C@H](NC(=O)N[C@@H](CCC(=O)O)C(=O)O)C(=O)O)CC2)cn1 [PSMA-T4, (S)-2-{3-[(S)-5-[(S)-3-(1H-Indol-3-yl)-2-({(1r,4r)-4-[(6-hydrazino-nicotinoylamino)methyl]cyclohexyl}carbonylamino)propionylamino]-1-carboxypentyl]ureido}glutaric acid]	79.5	
O.O=C([O-])CN(CCN(CC(=O)[O-])Cc1cc(CCC(=O)O)ccc1O)Cc1cc(CCC(=O)NCCCCCC(=O)NCCCC[C@H](NC(=O)N[C@@H](CCC(=O)O)C(=O)O)C(=O)O)ccc1[O-].[Ga+3] [[^68Ga]Ga-PSMA-11, Glu-NH-CO-Lys-(ahx)-HBED-CC-[^68Ga]Ga]		Kd (PSMA [2]; literature value ref 15): 11.4 ± 7.1 nM
O=C(O)CC[C@H](NC(=O)N[C@@H](CCCCNC(=O)Nc1ccc([131I])cc1)C(=O)O)C(=O)O [[^131I]I-MIP-1095, (2S)-2-({[(1S)-1-carboxy-5-({[4-[¹³¹I]iodophenyl]carbamoyl}amino)pentyl]carbamoyl}amino)pentanedioic acid]		IC50 (PSMA [3]): 0.3 nM
